Broadly, the IC50 is the concentration that inhibits the measured activity by half. A low value points to inhibition by little substance.

This assay deals with MMP13 (Homo sapiens (Human), UniProt P45452). Description: EnzoLyte 520 Generic MMP Assay Kit, 5-FAM/QXL 520 FRET peptide substrate. The class given is biochemical. The source says:
The EnzoLyte™ 520 Generic MMP Assay Kit (AnaSpec Inc.) can detect the activity of several MMPs including MMP-1, 2, 3, 7, 8, 9, 13, and 14. This kit uses a 5-FAM/QXL™ 520 fluorescence resonance energy transfer (FRET) peptide as an MMP substrate. In the intact FRET peptide, the fluorescence of 5-FAM is quenched by QXL™ 520. Upon cleavage into two separate fragments by MMPs, the fluorescence of 5-FAM is recovered, and can be monitored at excitation/emission wavelengths=490 nm/520 nm. The assays are performed in a convenient 96-well or 384-well microplate format.
`Cc1noc(-c2cc3cc(-c4nc(C(=O)NCc5cc(C)on5)[nH]c4C)ccc3[nH]2)n1` [5-methyl-N-[(5-methylisoxazol-3-yl)methyl]-4-[2-(3-methyl-1,2,4-oxadiazol-5-yl)-1H-indol-5-yl]-1H-imidazole-2-carboxamide] had an IC50 of 0.9 nM. In other words, the sub-nanomolar range.

For the compound `CCOC(=O)c1cc2cc(-c3ccnc(C(=O)NCc4ccncc4)c3)ccc2[nH]1` [5-{2-[(Pyridin-4-ylmethyl)-carbamoyl]-pyridin-4-yl}-1H-indole-2-carboxylic acid ethyl ester], the IC50 came to 94 nM.

With `Cc1noc(-c2cc3cc(-c4nc(C(=O)NCC5CC5)[nH]c4C)ccc3[nH]2)n1` [N-(cyclopropylmethyl)-5-methyl-4-[2-(3-methyl-1,2,4-oxadiazol-5-yl)-1H-indol-5-yl]-1H-imidazole-2-carboxamide], the IC50 is 8 nM.

Take `Cc1noc(-c2cc3cc(-c4cc(C(=O)NCc5ccno5)nn4C)ccc3[nH]2)n1` [N-(isoxazol-5-ylmethyl)-1-methyl-5-[2-(3-methyl-1,2,4-oxadiazol-5-yl)-1H-indol-5-yl]-1H-pyrazole-3-carboxamide]: the IC50 was found to be 19 nM.

`Cc1noc(-c2cc3cc(-c4nc(C(=O)NCc5ccno5)[nH]c4C)ccc3[nH]2)n1` [N-(isoxazol-5-ylmethyl)-5-methyl-4-[2-(3-methyl-1,2,4-oxadiazol-5-yl)-1H-indol-5-yl]-1H-imidazole-2-carboxamide] yielded a half-inhibitory concentration (IC50) of 0.7 nM.

Take `Cc1noc(-c2cc3cc(-c4cc(C(=O)NCc5ccnc(Cl)c5)nn4C)ccc3[nH]2)n1` [N-[(2-chloropyridin-4-yl)methyl]-1-methyl-5-[2-(3-methyl-1,2,4-oxadiazol-5-yl)-1H-indol-5-yl]-1H-pyrazole-3-carboxamide]: the IC50 was determined as 4 nM. This IC50 is about 5.7-fold higher than that of the compound before.

The compound `Cc1noc(-c2cc3cc(-c4nc(C(=O)NCc5ccnc(C#N)c5)[nH]c4C)ccc3[nH]2)n1` [N-[(2-cyanopyridin-4-yl)methyl]-5-methyl-4-[2-(3-methyl-1,2,4-oxadiazol-5-yl)-1H-indol-5-yl]-1H-imidazole-2-carboxamide] registered an IC50 of 0.95 nM.

The compound `Cc1noc(-c2cc3cc(-c4cc(C(=O)NCc5ccccc5)nn4C)ccc3[nH]2)n1` [N-benzyl-1-methyl-5-[2-(3-methyl-1,2,4-oxadiazol-5-yl)-1H-indol-5-yl]-1H-pyrazole-3-carboxamide] yielded an IC50 of 26 nM.

In turn, `Cc1noc(-c2cc3cc(-c4nc(C(=O)NCc5ccccc5)[nH]c4C)ccc3[nH]2)n1` [N-benzyl-5-methyl-4-[2-(3-methyl-1,2,4-oxadiazol-5-yl)-1H-indol-5-yl]-1H-imidazole-2-carboxamide] came in with an IC50 of 2 nM.

As to `Cc1noc(-c2cc3cc(-c4nc(C(=O)NC5CC5)[nH]c4C)ccc3[nH]2)n1` [N-cyclopropyl-5-methyl-4-[2-(3-methyl-1,2,4-oxadiazol-5-yl)-1H-indol-5-yl]-1H-imidazole-2-carboxamide], half-maximal inhibition (IC50) required 26 nM.
